In PMC6681697, “One-Step ^18F-Labeling and Preclinical Evaluation of Prostate-Specific Membrane Antigen Trifluoroborate Probes for Cancer Imaging” (Journal of Nuclear Medicine, 2019):

Columns and labels:
LNCaP xenografts = experiment: Ex vivo biodistribution and blocking studies in mice bearing LNCaP xenografts; settings: for tumor uptake: LNCaP tumor
Method: Imaging and biodistribution experiments were performed using NODSCID IL2RγKO male mice. All experiments were conducted according to the guidelines established by the Canadian Council on Animal Care and approved by the Animal Ethics Committee of the University of British Columbia. Mice were anesthetized by inhalation with 2% isoflurane in oxygen and implanted subcutaneously with 1 × 10^7 LNCaP cells behind the left shoulder. The mice were imaged or used in biodistribution studies once the tumor reached 5–8 mm in diameter (5–6 wk).
For biodistribution and blocking studies, the mice were injected with 1–3 MBq of radiotracer. At 60 min, the mice were anesthetized with 2% isoflurane inhalation and euthanized by CO2 inhalation. Blood was withdrawn by cardiac puncture, and the organs and tissues of interest were collected, weighed, and counted using an automatic γ-counter (PerkinElmer). Uptake values were expressed as the percentage of the injected dose per gram of tissue (%ID/g).
A standard 1-way ANOVA was performed to determine whether statistically significant differences in tumor uptake occurred between radiotracers. Each radiotracer was compared with ^18F-DCFPyL using the Dunnett test (a many-to-one t test comparison). This analysis was also performed for kidney and blood activity and for tumor-to-blood and tumor-to-muscle ratios. Reported P values were adjusted for multiple comparisons. The analysis was performed using Prism 8 (GraphPad). […]
Statistical analyses were performed using GradPad prism 7. Multiple t tests were performed to compare biodistribution in unblocked and blocked mice, multiple comparisons were corrected using the Holm-Sidak method. The difference was considered statistically significant when p value was < 0.05.
Supplemental Table 1 – Complete biodistribution study for compounds [18F]1–3 […]
Tissue 1h 1h blocked 1h 1h blocked 1h 1h blocked
(%ID/g) n = 8 n = 4 n = 6 n = 4 n = 8 n = 5 […]
(1 picture or pasted object on this page, not shown here)

PSMA = biological target: T1, PSMA (Homo sapiens, UniProt Q04609); experiment: In vitro competition binding assay on LNCaP cells with ^18F-DCFPyL as radioligand
T1 construct: because it expresses PSMA endogenously and is commonly used to evaluate PSMA-targeting radiotracers; endogenous in cells; host or cells: LNCaP cells
T1 sequence (Q04609 whole entry): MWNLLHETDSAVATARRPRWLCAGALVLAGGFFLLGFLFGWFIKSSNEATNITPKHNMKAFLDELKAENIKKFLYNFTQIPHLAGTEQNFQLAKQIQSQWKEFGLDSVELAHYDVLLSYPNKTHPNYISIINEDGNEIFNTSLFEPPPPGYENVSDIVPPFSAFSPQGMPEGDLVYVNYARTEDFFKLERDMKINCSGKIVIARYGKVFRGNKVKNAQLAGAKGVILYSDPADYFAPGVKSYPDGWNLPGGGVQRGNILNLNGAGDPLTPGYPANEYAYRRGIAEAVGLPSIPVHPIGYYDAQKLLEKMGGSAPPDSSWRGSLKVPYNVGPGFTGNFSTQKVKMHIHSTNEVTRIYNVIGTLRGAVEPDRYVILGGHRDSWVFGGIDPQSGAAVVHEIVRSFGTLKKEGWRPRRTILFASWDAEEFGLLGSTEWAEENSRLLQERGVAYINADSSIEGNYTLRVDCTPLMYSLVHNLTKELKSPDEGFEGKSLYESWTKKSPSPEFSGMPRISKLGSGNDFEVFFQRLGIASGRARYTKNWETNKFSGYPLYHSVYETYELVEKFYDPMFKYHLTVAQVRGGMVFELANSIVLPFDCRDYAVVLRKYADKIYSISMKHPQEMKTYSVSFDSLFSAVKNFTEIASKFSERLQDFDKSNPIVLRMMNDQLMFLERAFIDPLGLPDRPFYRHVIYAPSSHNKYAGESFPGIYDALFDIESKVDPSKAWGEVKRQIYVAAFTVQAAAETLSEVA
Method: LNCaP cells were plated onto a 24-well poly-D-lysine coated plate for 48 h (400,000/well). […] Nonspecific binding was determined in the presence of 10 μM unlabeled DCFPyL. The assay mixtures were incubated for 1 h at 37°C with gentle agitation followed by 2 washes with cold HEPES buffered saline. A trypsin solution (0.25%, 400 μL) was then added to each well to harvest the cells. Radioactivity was measured by γ-counting, and Ki values were calculated using the “1 site—fit Ki” built-in model in Prism 7 (GraphPad).

[1] = Distribution coefficient (LogD7.4), shake flask method; format: physicochemical; settings: n-octanol / phosphate buffer 0.1 M pH 7.4; n = 3
Method: LogD7.4 values were measured using the shake flask method. Briefly, an aliquot of ^18F-labeled tracer was added to a vial containing 2.5 mL of n-octanol and 2.5 mL of phosphate buffer (0.1 M, pH 7.4). The mixture was vortexed for 2 min and then centrifuged at 3,000g for 10 min. A sample of the n-octanol (0.1 mL) and buffer (0.1 mL) layers was counted using a γ-counter. Values of LogD7.4 were calculated using the following equation: LogD7.4 = log10 [(counts in n-octanol phase)/(counts in buffer phase)].

[2] = 1 h blocked (coinjection of DCFPyL 0.5 mg)

- T/B (tumor-to-blood ratio) (LNCaP xenografts; 1 h after injection, unblocked): 17.12 ± 5.40
- T/K (tumor-to-kidney ratio) (LNCaP xenografts; 1 h after injection, unblocked): 0.21 ± 0.08
- T/M (tumor-to-muscle ratio) (LNCaP xenografts; 1 h after injection, unblocked): 49.67 ± 28.45
- adrenal uptake (LNCaP xenografts; 1 h after injection, unblocked): 2.89 ± 1.94 %ID/g
- blood uptake (LNCaP xenografts; 1 h after injection, unblocked): 0.89 ± 0.42 %ID/g
- bone uptake (LNCaP xenografts; 1 h after injection, unblocked): 0.34 ± 0.14 %ID/g
- brain uptake (LNCaP xenografts; 1 h after injection, unblocked): 0.04 ± 0.01 %ID/g
- fat uptake (LNCaP xenografts; 1 h after injection, unblocked): 0.83 ± 0.33 %ID/g
- heart uptake (LNCaP xenografts; 1 h after injection, unblocked): 0.31 ± 0.11 %ID/g
- intestine uptake (LNCaP xenografts; 1 h after injection, unblocked): 12.96 ± 4.61 %ID/g
- kidney uptake (LNCaP xenografts; 1 h after injection, unblocked): 73.86 ± 35.21 %ID/g
- liver uptake (LNCaP xenografts; 1 h after injection, unblocked): 1.14 ± 0.48 %ID/g
- lung uptake (LNCaP xenografts; 1 h after injection, unblocked): 1.21 ± 0.48 %ID/g
- muscle uptake (LNCaP xenografts; 1 h after injection, unblocked): 0.36 ± 0.18 %ID/g
- pancreas uptake (LNCaP xenografts; 1 h after injection, unblocked): 0.30 ± 0.17 %ID/g
- spleen uptake (LNCaP xenografts; 1 h after injection, unblocked): 3.21 ± 1.73 %ID/g
- stomach uptake (LNCaP xenografts; 1 h after injection, unblocked): 0.37 ± 0.45 %ID/g
- testes uptake (LNCaP xenografts; 1 h after injection, unblocked): 0.74 ± 0.55 %ID/g
- tumor uptake compared with ^18F-DCFPyL (LNCaP xenografts; 1 h after injection, 1-way ANOVA, Dunnett test): No statistically significant differences
- T/B (tumor-to-blood ratio) (LNCaP xenografts; [2]): 0.95 ± 0.10
- T/K (tumor-to-kidney ratio) (LNCaP xenografts; [2]): 0.41 ± 0.09
- T/M (tumor-to-muscle ratio) (LNCaP xenografts; [2]): 2.85 ± 0.70
- adrenal uptake (LNCaP xenografts; [2]): 0.34 ± 0.09 %ID/g
- blood uptake (LNCaP xenografts; [2]): 0.44 ± 0.02 %ID/g
- bone uptake (LNCaP xenografts; [2]): 0.17 ± 0.03 %ID/g
- brain uptake (LNCaP xenografts; [2]): 0.02 ± 0.00 %ID/g
- fat uptake (LNCaP xenografts; [2]): 0.16 ± 0.06 %ID/g
- heart uptake (LNCaP xenografts; [2]): 0.15 ± 0.00 %ID/g
- intestine uptake (LNCaP xenografts; [2]): 12.36 ± 0.55 %ID/g
- kidney uptake (LNCaP xenografts; [2]): 1.04 ± 0.14 %ID/g
- liver uptake (LNCaP xenografts; [2]): 0.67 ± 0.13 %ID/g
- lung uptake (LNCaP xenografts; [2]): 0.39 ± 0.01 %ID/g
- muscle uptake (LNCaP xenografts; [2]): 0.15 ± 0.02 %ID/g
- pancreas uptake (LNCaP xenografts; [2]): 0.13 ± 0.06 %ID/g
- spleen uptake (LNCaP xenografts; [2]): 0.21 ± 0.02 %ID/g
- stomach uptake (LNCaP xenografts; [2]): 0.12 ± 0.10 %ID/g
- testes uptake (LNCaP xenografts; [2]): 0.24 ± 0.05 %ID/g
- tumor uptake (LNCaP xenografts; 1 h after injection, unblocked): 13.96 ± 5.20 %ID/g
- tumor uptake (LNCaP xenografts; [2]): 0.41 ± 0.04 %ID/g
- Ki (PSMA): 1.14 ± 0.26 nM
- logD at 2 min [1]: -3.52 ± 0.21
SMILES: C[N+](C)(Cc1cn(CC(=O)NC[C@H]2CC[C@H](C(=O)N[C@@H](Cc3ccc4ccccc4c3)C(=O)NCCCC[C@H](NC(=O)N[C@@H](CCC(=O)O)C(=O)O)C(=O)O)CC2)nn1)C[B-](F)(F)F [^18F-5]
- intestinal activity compared with ^18F-DCFPyL (LNCaP xenografts; 1 h after injection): significantly higher intestinal activity than ^18F-DCFPyL
